This note sets out measurements from ChEMBL document CHEMBL5365438, “2-Substituted 1,5-benzothiazepine-based HDAC inhibitors exert anticancer activities on human solid and acute myeloid leukemia cell lines” (Bioorg Med Chem, 2023).

The source made the active and inactive calls. The rule behind the calls is not given here.

The test system of experiment [1] is HCT-116. Nature of the experiment: Cytotoxicity against human HCT-116 cells assessed as cell death at 5 uM incubated for 24 hrs by PI staining based FACS analysis relative to control. The class given is functional.
Experiment [2] addresses Histone deacetylase. The class given is subcellular, Homo sapiens, Nucleus. The settings on record: hela.
Description: Inhibition of HDAC in human HeLa cell nuclear extract using Kac fluorogenic peptide as substrate containing residues 379-382 of p53 by fluorescence assay
Experiment [3] deals with U-937. Nature of the experiment: Induction of apoptosis in human U-937 cells assessed as increased p21 protein expression level at 1 to 5 uM incubated for 24 hrs by immunoblotting analysis. The class given is functional, cell-based. Particulars: dose 1-5 µM. On the technique in general: A western blot detects proteins with antibodies after separation by electrophoresis.

Experiment [4] has as its system HCT-116. The experiment in a line: Induction of apoptosis in human HCT-116 cells assessed as increased p21 protein expression level at 1 to 5 uM incubated for 24 hrs by immunoblotting analysis. The settings on record: dose 1-5 µM. The class given is functional, cell-based.
In experiment [5] the test system is U-937. Nature of the experiment: Induction of cell cycle arrest in human U-937 assessed as increase accumulation of cells in G2/M phase at 1 to 5 uM incubated for 24 hrs by FACS analysis. Particulars: dose 1-5 µM. The class given is functional, cell-based. For orientation: Flow cytometry measures light scatter and fluorescence of single cells or particles in a stream.

In experiment [6] the target is T1, Histone deacetylase (Homo sapiens) (UniProt Q13547+O15379+Q9UBN7+Q92769+Q9UQL6+Q8WUI4+Q9BY41+Q96DB2+P56524+Q9UKV0+Q969S8). The experiment in a line: Inhibition of HDAC in human HCT-116 cells assessed as upregulation of acetyl alpha-tubulin level at 1 to 5 uM incubated for 24 hrs by immunoblotting analysis. The class given is cell-based. Particulars: dose 1-5 µM.

Experiment [7] concerns HCT-116. The experiment in a line: Induction of cell cycle arrest in human HCT-116 assessed as accumulation of cells in G2/M phase at 1 to 5 uM incubated for 24 hrs by FACS analysis relative to SAHA. The class given is functional. Particulars: dose 1-5 µM.
Experiment [8] concerns the target T1, Histone deacetylase (Homo sapiens). The experiment in a line: Inhibition of HDAC in human U-937 cells assessed as upregulation of histone H3 acetylation at lysine 14 residue at 5 uM incubated for 24 hrs by immunoblotting analysis. The class given is cell-based.
Experiment [9] has as its system U-937. Nature of the experiment: Induction of cell cycle arrest in human U-937 assessed as decrease accumulation of cells in G1 phase at 5 uM incubated for 24 hrs by FACS analysis. The class given is functional, cell-based.
Experiment [10] has as its system U-937. Nature of the experiment: Cytotoxicity against human U-937 cells assessed as cell death at 5 uM incubated for 24 hrs by PI staining based FACS analysis relative to control. The class given is functional.
The target of experiment [11] is T1, Histone deacetylase (Homo sapiens). Nature of the experiment: Inhibition of HDAC in human U-937 cells assessed as upregulation of histone H3 acetylation at lysine 14 residue at 1 uM incubated for 24 hrs by immunoblotting analysis. The class given is cell-based.
The subject of experiment [12] is HCT-116. Nature of the experiment: Cytotoxicity against human HCT-116 cells assessed as reduction in cell death at 1 uM incubated for 24 hrs by PI staining based FACS analysis. The class given is functional.
Experiment [13] concerns U-937. Nature of the experiment: Induction of cell cycle arrest in human U-937 assessed as reduced accumulation of cells in S phase at 1 uM incubated for 24 hrs by FACS analysis. The class given is functional, cell-based.
Experiment [14] deals with T2, Protein deacetylase HDAC6 (Homo sapiens) (UniProt Q9UBN7).
T2 sequence (whole entry): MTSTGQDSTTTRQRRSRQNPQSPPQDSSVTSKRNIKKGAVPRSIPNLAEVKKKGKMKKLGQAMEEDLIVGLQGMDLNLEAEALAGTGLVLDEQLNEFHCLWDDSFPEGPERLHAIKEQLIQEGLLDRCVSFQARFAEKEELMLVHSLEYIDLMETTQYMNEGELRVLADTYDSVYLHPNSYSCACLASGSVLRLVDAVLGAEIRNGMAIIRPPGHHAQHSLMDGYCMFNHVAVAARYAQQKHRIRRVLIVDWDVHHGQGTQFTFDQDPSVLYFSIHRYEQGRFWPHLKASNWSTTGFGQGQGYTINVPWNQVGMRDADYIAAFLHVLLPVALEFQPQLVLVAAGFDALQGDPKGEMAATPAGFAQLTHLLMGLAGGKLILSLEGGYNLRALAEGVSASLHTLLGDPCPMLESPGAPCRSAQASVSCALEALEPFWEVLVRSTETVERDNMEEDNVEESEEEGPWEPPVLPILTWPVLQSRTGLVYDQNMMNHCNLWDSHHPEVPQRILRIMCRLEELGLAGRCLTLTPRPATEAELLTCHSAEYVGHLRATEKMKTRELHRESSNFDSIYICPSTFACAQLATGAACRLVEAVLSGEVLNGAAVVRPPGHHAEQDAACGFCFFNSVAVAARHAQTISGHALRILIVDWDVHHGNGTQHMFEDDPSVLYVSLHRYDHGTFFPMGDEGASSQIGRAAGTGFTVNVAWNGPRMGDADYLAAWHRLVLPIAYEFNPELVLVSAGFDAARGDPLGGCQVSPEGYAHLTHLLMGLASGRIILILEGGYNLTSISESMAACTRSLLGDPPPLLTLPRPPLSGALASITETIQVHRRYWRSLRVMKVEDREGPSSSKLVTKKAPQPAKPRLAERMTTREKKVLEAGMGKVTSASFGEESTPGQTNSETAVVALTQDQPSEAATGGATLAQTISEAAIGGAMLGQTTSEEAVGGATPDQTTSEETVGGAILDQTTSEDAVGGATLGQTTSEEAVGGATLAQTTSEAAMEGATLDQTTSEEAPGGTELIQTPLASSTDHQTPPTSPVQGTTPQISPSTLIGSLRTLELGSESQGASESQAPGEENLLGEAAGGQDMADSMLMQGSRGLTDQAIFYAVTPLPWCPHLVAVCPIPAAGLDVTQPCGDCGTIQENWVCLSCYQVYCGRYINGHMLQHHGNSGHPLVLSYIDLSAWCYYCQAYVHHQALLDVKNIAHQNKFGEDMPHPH
Nature of the experiment: Inhibition of HDAC6 (unknown origin) at 10 uM using fluorogenic peptide as substrate pre-incubated for 15 mins followed by substrate addition incubated for 30 mins by fluorescence assay. Particulars: time 45.0 min.

Experiment [15] has as its target T3, Histone deacetylase 1 (Homo sapiens, UniProt Q13547). Nature of the experiment: Inhibition of HDAC1 (unknown origin) at 10 uM using fluorogenic peptide as substrate pre-incubated for 15 mins followed by substrate addition incubated for 30 mins by fluorescence assay relative to control. The settings on record: time 45.0 min.
In experiment [16] the target is T3, Histone deacetylase 1. Nature of the experiment: Inhibition of HDAC1 (unknown origin) using fluorogenic peptide as the substrate containing residues 379-382 of p53 pre-incubated for 15 mins followed by substrate addition incubated for 30 mins by multimode plate reader.
Experiment [17] relates to U-937. The experiment in a line: Induction of cell cycle arrest in human U-937 assessed as decrease accumulation of cells in S phase at 1 to 5 uM incubated for 24 hrs by FACS analysis. The settings on record: dose 1-5 µM. The class given is functional, cell-based.
In experiment [18] the target is T1, Histone deacetylase (Homo sapiens). Nature of the experiment: Inhibition of HDAC in human U-937 cells assessed as upregulation of acetyl alpha-tubulin level at 5 uM incubated for 24 hrs by immunoblotting analysis. The class given is cell-based.
Experiment [19] concerns U-937. Nature of the experiment: Induction of cell cycle arrest in human U-937 assessed as decrease accumulation of cells in G1 phase at 1 to 5 uM incubated for 24 hrs by FACS analysis. The class given is functional, cell-based. The settings on record: dose 1-5 µM.
For experiment [20], the target named is T1, Histone deacetylase (Homo sapiens). The experiment in a line: Inhibition of HDAC in human HCT-116 cells assessed as upregulation of histone H3 acetylation at lysine 14 residue at 1 uM incubated for 24 hrs by immunoblotting analysis. The class given is cell-based.
The subject of experiment [21] is HCT-116. The experiment in a line: Induction of cell cycle arrest in human HCT-116 assessed as decrease accumulation of cells in G1 phase at 1 to 5 uM incubated for 24 hrs by FACS analysis. The class given is functional, cell-based. Particulars: dose 1-5 µM.
Experiment [22] relates to U-937. The experiment in a line: Cytotoxicity against human U-937 cells assessed as cell death at 1 to 5 uM incubated for 24 hrs by PI staining based FACS analysis relative to control. The class given is functional. Particulars: dose 1-5 µM.
Experiment [23] concerns HCT-116. The experiment in a line: Induction of cell cycle arrest in human HCT-116 assessed as decrease accumulation of cells in S phase at 1 to 5 uM incubated for 24 hrs by FACS analysis. The class given is functional, cell-based. Particulars: dose 1-5 µM.

In general, IC50 refers to the concentration that inhibits the measured activity by half. By inhibition is commonly meant the percentage by which the read-out fell short of the control. Higher therefore signals a strong effect.

T3 sequence (Q13547 whole entry, the tested form may be a part): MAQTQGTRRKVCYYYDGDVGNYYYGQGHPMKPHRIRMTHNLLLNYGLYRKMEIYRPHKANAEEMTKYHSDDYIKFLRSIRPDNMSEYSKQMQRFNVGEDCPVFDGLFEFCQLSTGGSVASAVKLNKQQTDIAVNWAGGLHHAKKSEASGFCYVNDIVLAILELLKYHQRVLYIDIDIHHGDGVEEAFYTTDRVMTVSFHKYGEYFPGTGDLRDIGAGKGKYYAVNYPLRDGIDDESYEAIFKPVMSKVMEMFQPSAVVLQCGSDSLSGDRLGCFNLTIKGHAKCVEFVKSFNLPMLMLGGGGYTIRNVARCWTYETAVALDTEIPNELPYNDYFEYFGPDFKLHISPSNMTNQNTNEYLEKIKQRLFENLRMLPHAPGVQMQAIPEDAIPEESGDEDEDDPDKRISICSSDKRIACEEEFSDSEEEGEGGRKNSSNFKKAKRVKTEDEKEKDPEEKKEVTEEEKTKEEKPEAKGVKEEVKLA

For `O=C(CCCCCN1C(=O)C[C@@H](c2ccc(Cl)c(Cl)c2)Sc2ccccc21)NO`, the Activity is reported as 22% in [1] and around 12% in experiment [10]. In experiment [2], the IC50 was determined as 165.1 nM. In addition, the result in [3], in [4], in [5], in [6], in [7] and in experiment [8] was Active. Further, the outcome in [9], in [11], in experiment [12] and in experiment [13] was Active.
As to `O=C(CCCCCCC(=O)Nc1ccc([C@H]2O[C@@H](CSc3nc(-c4ccccc4)c(-c4ccccc4)o3)C[C@@H](c3ccc(CO)cc3)O2)cc1)NO`, the inhibition in experiment [14] was found to be 94.3%.
Take `Cc1ccc(C2CC(=O)N(CCCCCC(=O)NO)c3ccccc3S2(=O)=O)cc1` (racemic): the inhibition came out at 93.5% in [15] and 98.6% in experiment [14]. For the same compound, the IC50 came out at 175 nM in experiment [16] and 42.2 nM in experiment [2]. Also, the outcome in [17], in experiment [18], in experiment [3], in [4], in experiment [5] and in [6] was Active. Further, the outcome in experiment [7], in experiment [19], in [8], in [20], in [11] and in experiment [21] was Active. In experiment [23], the result was Active. In experiment [22], the Activity is listed as around 6%.
As for `O=C(CCCCCN1C(=O)CC(c2ccccc2Cl)S(=O)(=O)c2ccccc21)NO` (racemic), the inhibition came to 92.6% in experiment [15] and 99.4% in experiment [14]. Besides, the values for the IC50 in [16] and in [2] were 270 nM and 40.6 nM, respectively. In addition, the result in [17], in experiment [18], in experiment [3], in experiment [4], in experiment [5] and in [6] was Active. Moreover, the result in experiment [7], in experiment [19], in experiment [8], in [20], in [11] and in experiment [21] was Active. For the same compound, the outcome in experiment [23] was Active. For the same compound, in experiment [22], the Activity is listed as around 6%.
As to `O=C(CCCCCN1C(=O)CC(c2cccc3ccccc23)S(=O)(=O)c2ccccc21)NO` (racemic), the inhibition was 80.9% in experiment [15] and 99.3% in [14]. The IC50 in experiment [16] was found to be 378 nM; in experiment [2], 77.9 nM. The result in [17], in experiment [18], in [3], in [4], in experiment [5] and in experiment [6] was Active. Besides, the result in experiment [7], in [19], in [8], in experiment [20], in experiment [11] and in [21] was Active. The outcome in [23] was Active. Also, the Activity in experiment [22] is around 6%.
For the compound `O=C(CCCCCN1C(=O)CC(c2ccc(Cl)c(Cl)c2)Sc2ccccc21)NO` (racemic), the values for the Activity in [1] and in experiment [10] were 22% and around 12%, respectively. In [2], the IC50 came out at 229.2 nM. Moreover, the outcome in experiment [18], in experiment [3], in [4], in experiment [5], in [6] and in experiment [7] was Active. The outcome in experiment [8], in [9], in experiment [12] and in experiment [13] was Active.
Take `COc1ccc(C2CC(=O)N(CCCCCC(=O)NO)c3ccccc3S2(=O)=O)cc1` (racemic): the inhibition in experiment [15] was found to be 94.2%; in [14], 95.8%. The IC50 in experiment [16] was determined as 248 nM; in [2] it was 114.6 nM. Further, the outcome in experiment [17], in [18], in experiment [3], in [4], in [5] and in [6] was Active. In addition, the outcome in [7], in [19], in experiment [8], in experiment [20], in experiment [11] and in experiment [21] was Active. Also, the outcome in experiment [23] was Active. In addition, the Activity in experiment [22] was around 6%.
For `O=C(CCCCCN1C(=O)CC(c2cccc(Br)c2)Sc2ccccc21)NO` (racemic), the Activity in experiment [1] was 22%; in experiment [10], around 12%. In experiment [2], the IC50 came to 293.3 nM. Besides, the outcome in experiment [18], in [3], in experiment [4], in experiment [5], in [6] and in experiment [7] was Active. The result in experiment [8], in experiment [9], in [12] and in [13] was Active.
